Here are results for three molecules from patent US12310948B2, “Application of monocyclic β-lactam compound in pharmacy” (SHENZHEN OPTIMUM BIOLOGICAL TECHNOLOGY CO., LTD, priority 2018, dated 2025).

SMILES strings stand for the structures. Marks after values point to notes of the source that are not given here.

Data set [1] is described as follows: Animal body weight in the in vivo protection test (pulmonary infection in mice). The settings on record: for Weight on day 1 / Weight on day 4 / Weight on day 5: ip. As for the experimental part:
(§1) 46 female CD-1 (ICR) mice, supplied by Beijing Vital River Laboratory Animal Technology Co., Ltd., body weight of 23-27 g, 7 weeks old.
The mice were weighed each day after the start of the test and body weight changes were recorded.
(§2) CFU scatter plots of lung tissue were made using Graphpad Prism mapping software. The average CFU and body weight were calculated by SPSS 19.0 software, and the differences between groups were analyzed by variance analysis.

Data set [2] concerns Pseudomonas aeruginosa PA14. The data set can be described thus: Pulmonary Pseudomonas aeruginosa infection in immunosuppressive mice: lung bacterial load. The data set is classed as in vivo. The conditions noted are these: for LOG10 of Bacterial load: lung tissue 24 h after infection, immunosuppressed CD-1 mice, ip at 2 h, 4 h, 6 h, 8 h. As for the experimental part:
Pseudomonas aeruginosa PA14.
as §1
46 immunosuppressive mice were formed by intraperitoneal injection of cyclophosphamide 150 mg/kg on day 1 and day 4.
Seven groups were set up, including high, medium and low dose groups of compound represented by formula (I), high and medium-dose groups of compound I-g, aztreonam group and model group; there were 6 animals in each group, the other 4 animals were subjected to pulmonary infection for 2 h, and the lung tissues were removed to count the bacterial load. See the table below for specific grouping.
Mice were injected intratracheally with 50 μL of bacterial fluid (2×10^3 CFU). Four model mice were sacrificed 2 h after infection.
2 h after infection, the mice were injected intraperitoneally once at 2 h, 4 h, 6 h and 8 h according to the groups, for a total of 4 times.
24 h after infection, the mice in each group were sacrificed by cervical dislocation, and the lung and kidney tissues were removed aseptically, then placed into sterilized homogenate tube, weighed, added with proper amount of normal saline (NS), and homogenized by a homogenizer for 1 min; the lung tissues in model group were diluted 10^4, 10^5, and 10^6-fold, the lung tissues in each administration group were diluted 10 and 100-fold, the kidney tissues in model group were diluted 10^2, 10^3, and 10^4-fold, and the lung tissues in each administration group were diluted 10-fold; the serial diluents were plated onto TSA plates with a spiral coater, and incubated overnight at 37° C. to determine CFU counts with a colony counter.
as §2
Mice were injected intraperitoneally with compounds of formula (I), compound I-g and aztreonam at 2 h, 4 h, 6 h and 8 h after infection; animals were sacrificed at 24 h, lung tissues were removed aseptically, immersed in normal saline (NS), homogenized, diluted appropriately, and then 50 μL of diluents were evenly plated onto TSA plates; the plates were incubated overnight in a 37° C. incubator to count the number of colonies, which was converted to CFU per milliliter by a dilution ratio, and logarithmic value of the bacterial load was calculated of base 10, and the mean and standard deviation were compared in each group.

`CC1(C)[C@H](NC(=O)/C(=N\O[C@@H](COc2ccc3c(c2)CN(C(=N)N(CCCN)CCCN)C3)C(=O)O)c2csc(N)n2)C(=O)N1OS(=O)(=O)O` [Compound represented by formula (I)]: the “Weight on day 1” value in data set [1] (60 mg/kg day group) is 26.14 ± 1.21 g; in data set [1] (120 mg/kg day group), 26.47 ± 1.65 g; in data set [1] (200 mg/kg day group), 26.91 ± 1.03 g. The “Weight on day 4” value was found to be 27.76 ± 0.43 g in data set [1] (60 mg/kg day group), 28.33 ± 1.14 g in data set [1] (120 mg/kg day group) and 28.03 ± 2.15 g in data set [1] (200 mg/kg day group). Also, the entries for the “Weight on day 5” value in data set [1] (60 mg/kg day group), in data set [1] (120 mg/kg day group) and in data set [1] (200 mg/kg day group) were 26.77 ± 1.02 g, 28.01 ± 1.35 g and 25.40 ± 2.75 g, respectively. Further, the “Safety conclusion from body weight (in words)” value in data set [1] (administration group) is reported as “safe”. Moreover, the “Elimination of the bacteria infected on the lung (in words)” value in data set [2] (at the lowest dose) is given as “completely eliminated”. For the same molecule, the “Elimination of bacterial load in lung tissue (in words)” value in data set [2] (high, middle and low-dose groups, 24 h after infection) is listed as “completely eliminated”. Further, the “LOG10 of Bacterial load” value in data set [2] (total dose 60 mg/kg day), in data set [2] (total dose 120 mg/kg day) and in data set [2] (total dose 200 mg/kg day) was 0** throughout.

Consider `C[C@H]1[C@H](NC(=O)/C(=N\OC(C)(C)C(=O)O)c2csc(N)n2)C(=O)N1S(=O)(=O)O` [Aztreonam, aztreonam, reference compound], for which, in data set [1] (400 mg/kg day group), the “Weight on day 1” value is reported as 27.16 ± 1.74 g, the “Weight on day 4” value stood at 27.80 ± 2.37 g and the “Weight on day 5” value was found to be 28.02 ± 1.08 g. Also, the “LOG10 of Bacterial load” value in data set [2] (total dose 400 mg/kg day) is 1.62 ± 2.22.

As to `CC1(C)[C@H](NC(=O)/C(=N\O[C@@H](COc2ccc(C(=N)N[C@@H]3CCCNC3)cc2)C(=O)O)c2csc(N)n2)C(=O)N1OS(=O)(=O)O` [I-g, reference compound], in data set [1] (120 mg/kg day group), the “Weight on day 1” value stood at 27.02 ± 1.12 g, the “Weight on day 4” value is given as 28.21 ± 1.16 g and the “Weight on day 5” value amounted to 27.20 ± 0.96 g. Moreover, in data set [1] (200 mg/kg day group), the “Weight on day 1” value was determined as 27.25 ± 1.14 g, the “Weight on day 4” value was found to be 28.39 ± 1.60 g and the “Weight on day 5” value turned out to be 26.43 ± 1.06 g. For the same molecule, in data set [2] (total dose 120 mg/kg day), the “LOG10 of Bacterial load” value stood at 1.58 ± 2.45. The “LOG10 of Bacterial load” value in data set [2] (total dose 200 mg/kg day) is reported as 0**.
